Results on 15 molecules are retold here after ChEMBL document CHEMBL1134919, “1,3,4-Trisubstituted pyrrolidine CCR5 receptor antagonists. Part 3: polar functionality and its effect on anti-HIV-1 activity” (Bioorg Med Chem Lett, 2002).

Bounds are passed on as bounds.

For data set [1], the target named is T1, C-C chemokine receptor type 5 (Homo sapiens, UniProt P51681). Briefly: biochemical. Type of data set: cell-based, CHO.
Target sequence in this assay (P51681 whole entry): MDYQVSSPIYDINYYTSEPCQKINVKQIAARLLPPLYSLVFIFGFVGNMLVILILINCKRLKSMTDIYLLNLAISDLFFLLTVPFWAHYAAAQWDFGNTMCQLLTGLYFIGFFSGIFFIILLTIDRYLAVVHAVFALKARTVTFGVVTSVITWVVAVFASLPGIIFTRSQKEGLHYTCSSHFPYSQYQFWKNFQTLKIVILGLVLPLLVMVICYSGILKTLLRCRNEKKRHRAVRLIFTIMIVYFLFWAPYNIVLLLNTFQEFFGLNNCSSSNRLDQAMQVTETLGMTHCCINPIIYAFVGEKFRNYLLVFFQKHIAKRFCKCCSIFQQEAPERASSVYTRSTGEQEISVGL
The nature of data set [2]: Inhibition (CIC90) of a single HIV-1 (BAL) infection cycle in HeLa Magi cells expressing both CXCR4 and CCR5 receptors over a 48 h period. The note with it: Homo sapiens. Type of data set: functional.
In data set [3] the target is T1, C-C chemokine receptor type 5. Briefly: Displacement of [125I]-labeled MIP-1alpha from the C-C chemokine receptor type 5 expressed on CHO cell membranes. It is filed as cell-based. (In general: Displacement assays read how much labelled ligand stays bound in the presence of the test substance.)
Target sequence in this assay (P51681 whole entry): as above
Data set [4] shares this target. Put plainly: Concentration that inhibits the entry of HIV-1 in to peripheral blood mononuclear cells (PBMCs) via the antagonism of CCR5 receptor. Type of data set: functional.
Target sequence in this assay (P51681 whole entry, looked up): as the sequence (P51681 whole entry) above
Data set [5] is described as follows: Plasma clearance rate was determined for the compound in rat. As to conditions: read-out: Clp. Type of data set: ADME, organism-based.
Data set [6] can be described thus: Half-life period was determined for the compound in rat. As to conditions: in vivo. It is filed as ADME, organism-based.

As usually defined, the IC50 is the concentration that inhibits the measured activity by half. In general, IC90 refers to the concentration at which the effect reaches the 90% level. The low end stands for an effect from little substance, the high end for a need for much substance. `O=C(O)CCc1ccc(CCCC2(O)CCN(C[C@H]3CN(CC4CCCCC4)C[C@@H]3c3ccccc3)CC2)cc1` had an IC50 in data set [1] of 2 nM. Also, in data set [2], the 90% effect level (IC90) was put at 40 nM.
On to `O=C(O)Cc1cccc(CCCC2(O)CCN(C[C@H]3CN(CC4CCCCC4)C[C@@H]3c3ccccc3)CC2)c1`, for which, in data set [1], 6 nM corresponded to half-maximal inhibition (IC50). Also, in data set [2], the 90% effect level (IC90) was put at 300 nM.
A word on the IC95: it is the concentration at which the effect reaches the 95% level. Read a high IC95 as a need for much substance. `OC1(CCCc2ccccc2)CCN(C[C@H]2CN(CC3CCCCC3)C[C@@H]2c2ccccc2)CC1` came in with a half-maximal inhibitory concentration (IC50) in data set [3] of 0.3 nM. The molecule also returned an IC90 in data set [2] of 200 nM. This molecule also displayed an IC95 in data set [4] of 580 nM.
Consider `O=C(O)c1ccccc1CCCC1(O)CCN(C[C@H]2CN(CC3CCCCC3)C[C@@H]2c2ccccc2)CC1`, for which the midpoint of inhibition in data set [1], the IC50, lay at 100 nM. In addition, the IC90 in data set [2] is over 1000 nM.
In data set [3], `OC1(CCCc2ccncc2)CCN(C[C@H]2CN(CC3CCCCC3)C[C@@H]2c2ccccc2)CC1` had an IC50 of 12 nM.
Still for that read-out and setting: with `OC1(CCCc2cccnc2)CCN(C[C@H]2CN(CC3CCCCC3)C[C@@H]2c2ccccc2)CC1` the figure was 6 nM.
Regarding `O=C(O)c1cccc(CCCC2(O)CCN(C[C@H]3CN(CC4CCCCC4)C[C@@H]3c3ccccc3)CC2)c1`, in data set [1], the IC50 turned out to be 3 nM. The IC90 in data set [2] is over 1000 nM.
In data set [1], `O=C(O)Cc1ccc(CCCC2(O)CCN(C[C@H]3CN(CC4CCCCC4)C[C@@H]3c3ccccc3)CC2)cc1` returned an IC50 of 5 nM. Moreover, in data set [2], the 90% effect level (IC90) was put at 100 nM.
In the same order, the values of `Cn1nnnc1-c1ccc(CCCC2(O)CCN(C[C@H]3CN(CC4CCCCC4)C[C@@H]3c3ccccc3)CC2)cc1` are 0.2 nM and 100 nM.
As to `OC1(CCCc2ccccn2)CCN(C[C@H]2CN(CC3CCCCC3)C[C@@H]2c2ccccc2)CC1`, in data set [3], the half-inhibitory concentration (IC50) turned out to be 7 nM. This counts as single-digit nanomolar.
As for `O=C(O)c1ccc(CCCC2(O)CCN(C[C@H]3CN(CC4CCCCC4)C[C@@H]3c3ccccc3)CC2)cc1`, in data set [1], the IC50 came out at 10 nM. The same molecule yielded a concentration for an effect of 90% (IC90) in data set [2] of 1000 nM.
In the same order, the values of `C[n+]1n[nH]c(-c2ccc(CCCC3(O)CCN(C[C@H]4CN(CC5CCCCC5)C[C@@H]4c4ccccc4)CC3)cc2)n1` are 0.4 nM and over 300 nM.
Turning to `C=CCN(C(=O)OCc1ccc([N+](=O)[O-])cc1)C1CCN(C[C@H]2CN(C(=O)c3ccccc3Cl)C[C@@H]2c2ccccc2)CC1`, in data set [2], it took 1 nM to reach the 90% level (IC90). Further, in data set [4], the 95% effect concentration (IC95) came out at 31 nM.
Consider `OC1(CCCc2ccc(Cc3nnn[nH]3)cc2)CCN(C[C@H]2CN(CC3CCCCC3)C[C@@H]2c2ccccc2)CC1`, for which the IC50 in data set [1] came to 1 nM. This molecule gave an IC90 in data set [2] of 100 nM.
What is called half-life is the time in which the quantity being followed falls by half. Lower therefore signals fast loss. Regarding `OC1(CCCc2ccc(-c3nnn[nH]3)cc2)CCN(C[C@H]2CN(CC3CCCCC3)C[C@@H]2c2ccccc2)CC1`, in data set [5], the clearance was 61 mL/min/kg. In data set [6], this molecule showed a half-life of 20 min. Besides, the IC50 in data set [1] is 0.2 nM. In data set [2], this molecule yielded an IC90 of 4 nM.
